According to the supplement of paper PMC11061612:

What was measured:
MG-63 (Osteosarcoma) = experiment: Bliss excess, mean over the matrix (fraction); higher = more synergy
How it was run: (§1)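 Cell lines in DMEM/F12 or RPMI with 10% FBS were plated in 1536-well plates, held 24 hours at 37°C, 5% CO2, then given two-drug dose matrices for 72 hours (DMSO typically 0.2%). Viability was read by CellTiter-Glo 2.0 luminescence and scaled as inhibition from 0 (vehicle wells) to 1 (blank wells). Combination Emax is the second-highest inhibition in the matrix; Bliss excess is observed combination effect minus expected EA + EB − EA·EB, EA and EB being single-agent effects.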

[1] = tested on: MRK-nu-1 (Breast Carcinoma); experiment: as above
How it was run: as §1

[2] = tested on: NCI-H835 (Other Solid Carcinomas); experiment: as above
How it was run: as §1

[3] = tested on: OVKATE (Ovarian Carcinoma); experiment: as above
How it was run: as §1

[4] = tested on: SBC-3 (Small Cell Lung Carcinoma); experiment: as above
How it was run: as §1

[5] = tested on: SBC-5 (Small Cell Lung Carcinoma); experiment: as above
How it was run: as §1

[6] = tested on: SCC90 (Head and Neck Carcinoma); experiment: as above
How it was run: as §1

[7] = tested on: SUP-HD1 (Hodgkin's Lymphoma); experiment: as above
How it was run: as §1

[8] = tested on: ATN-1 (T-Lymphoblastic Leukemia); experiment: combination Emax (second highest fraction inhibited in the dose matrix, 72 h); higher = more inhibition; extreme values may be limits of the assay
How it was run: as §1

[9] = tested on: BT-474 (Breast Carcinoma); experiment: as above
How it was run: as §1

GCIY (Gastric Carcinoma) = experiment: as above
How it was run: as §1

[10] = tested on: GRANTA-519 (B-Cell Non-Hodgkin's Lymphoma); experiment: as above
How it was run: as §1

[11] = tested on: JURL-MK1 (Chronic Myelogenous Leukemia); experiment: as above
How it was run: as §1

[12] = tested on: L-363 (Plasma Cell Myeloma); experiment: as above
How it was run: as §1

[13] = tested on: NCI-H1048 (Small Cell Lung Carcinoma); experiment: as above
How it was run: as §1

[14] = tested on: NCI-H1944 (Lung Adenocarcinoma); experiment: as above
How it was run: as §1

NCI-H2452 (Mesothelioma) = experiment: as above
How it was run: as §1

SK-MEL-24 (Melanoma) = experiment: as above
How it was run: as §1

SK-N-DZ (Neuroblastoma) = experiment: as above
How it was run: as §1

[15] = tested on: SUP-HD1 (Hodgkin's Lymphoma); experiment: as above
How it was run: as §1
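Throughout, for Bliss excess, mean over the matrix: after 72 h of two-drug dosing.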

Structure (SMILES)	Bliss excess (MG-63 (Osteosarcoma))	Bliss excess [1]	Bliss excess [2]	Bliss excess [3]	Bliss excess [4]	Bliss excess [5]	Bliss excess [6]	Bliss excess [7]	combination Emax [8]	combination Emax [9]	combination Emax (GCIY (Gastric Carcinoma))	combination Emax [10]	combination Emax [11]	combination Emax [12]	combination Emax [13]	combination Emax [14]	combination Emax (NCI-H2452 (Mesothelioma))	combination Emax (SK-MEL-24 (Melanoma))	combination Emax (SK-N-DZ (Neuroblastoma))	combination Emax [15]
COc1cc2ncnc(Nc3ccc(F)c(Cl)c3)c2cc1OCCCN1CCOCC1 [Gefitinib] + CC(C)n1c(=O)n(C)c2cnc3cc(F)c(-c4ccc(OCCCN5CCCCC5)nc4)cc3c21 [AZD1390] (first compound max 10 µM, 7x7, partner max 0.3 µM)	-0.0772	0.0492	-0.0381	-0.0386	-0.0501	-0.0649	-0.0582	-0.0683	0.296	0.485	0.459	0.201	0.499	0.148	0.0795	0.19	0.306	0.246	0.19	0.382
COc1cc2c(cc1OCCCCCOc1cc3c(cc1OC)C(=O)N1C=C(C)C[C@H]1C=N3)N=C[C@@H]1CC(C)=CN1C2=O [SG3199] + O=C(c1cc(Cc2n[nH]c(=O)c3ccccc23)ccc1F)N1CCN(C(=O)C2CC2)CC1 [Olaparib] (first compound max 0.001 µM, 7x7, partner max 10 µM)	-0.0041	-0.0642	-0.0406	-0.0653	-0.0516	-0.0193	-0.0461	0.1	0.0857	0.049	0.258	0.324	0.418	0.0669	0.387	0.192	0.155	0.129	0.358	0.456
C[C@@H](c1ccc2nccn2c1)n1nnc2ncc(-c3cnn(C)c3)nc21 [Savolitinib] + CC1(C)CCC(CN2CCN(c3ccc(C(=O)NS(=O)(=O)c4ccc(NCC5CCOCC5)c([N+](=O)[O-])c4)c(Oc4cnc5[nH]ccc5c4)c3)CC2)=C(c2ccc(Cl)cc2)C1 [Venetoclax] (first compound max 1 µM, 7x7, partner max 1 µM)	-0.0157	0.0851	-0.0355	-0.0495	-0.0435	-0.0451	-0.0192	0.034	0.186	0.0943	0.213	0.306	0.127	0.0979	0.178	0.128	0.174	0.154	0.173	0.792
C[C@@H](c1ccc2nccn2c1)n1nnc2ncc(-c3cnn(C)c3)nc21 [Savolitinib] + Cc1c2c(nn1C)CSCc1cc(n(C)n1)CSc1cc(c3ccccc3c1)OCCCc1c(C(=O)O)n(C)c3c-2c(Cl)ccc13 [AZD5991] (first compound max 1 µM, 7x7, partner max 1 µM)	0.0065	0.0344	-0.0267	-0.0434	-0.0321	0.0286	-0.0222	-0.05	0.904	0.628	0.176	0.141	0.129	0.992	0.196	0.184	0.205	0.225	0.255	0.62
